Patent US20180303853A1, “COMPOSITIONS AND METHODS FOR TREATING BACTERIAL INFECTIONS USING CEFTAROLINE” (priority 2017, published 2018)

Assays:
human plasma protein = format: in vitro ADME
[1] = test system: community-acquired pneumonia (CAP); experiment: Example 4 Phase 3 study, ceftaroline vs ceftriaxone in CAP, efficacy; format: in vivo, human
Source text: (§1) The secondary objectives of the study were to evaluate the following: clinical response at end-of-therapy (EOT); the microbiological favorable outcome rate at TOC; the overall (clinical and radiographic) success rate at TOC; the clinical and microbiological response by pathogen at TOC; clinical relapse at late follow-up (LFU); microbiological reinfection/recurrence at LFU; and safety.
(§2) The following criteria were used for evaluation: The primary efficacy outcome measures were the pet-subject clinical cure rate at test-of-cure (TOC) in the CE and MITTE Populations Subjects were considered clinically cured at TOC if they had total resolution of all signs and symptoms of the baseline infection, or improvement of the infection such that no further antimicrobial therapy was necessary.
(§3) Non-inferiority was concluded if the lower limit of the 95% CI was higher than −10%.

[2] = test system: community-acquired pneumonia (CAP); experiment: Example 5 Phase 3 study, ceftaroline vs ceftriaxone with adjunctive clarithromycin in CAP, efficacy; format: in vivo, human
Source text: as §1, with “objective” for “objectives”, “was” for “were”, “following: the” for “following:”
as §2, with “The” for “The following criteria were used for evaluation: The”, “per-subject” for “pet-subject”, “TOC” for “test-of-cure (TOC)”, “Populations.” for “Populations”
as §3

E. coli = experiment: Example 5 CAP study, outcome by baseline pathogen; format: in vivo
Source text: (§4) Per-pathogen clinical cure rate and favorable microbiological outcome rate at TOC in the mMITTE and ME Populations;

H. influenzae = experiment: Example 5 CAP study, outcome by baseline pathogen; format: in vivo
Source text: as §4

H. parainfluenzae = experiment: Example 5 CAP study, outcome by baseline pathogen; format: in vivo
Source text: as §4

S. aureus = experiment: Example 5 CAP study, outcome by baseline pathogen; format: in vivo
Source text: as §4

S. pneumoniae = experiment: Example 5 CAP study, outcome by baseline pathogen; format: in vivo
Source text: as §4

[3] = human, microsomes
[4] = human, in vivo
Method: (§5) Study-Drug: Ceftaroline fosamil was administered in two consecutive 300 mg intravenous (IV) infusions over 30 minutes, every 12 hours (q12h). The 600-mg dose of ceftaroline fosamil infused over 60 minutes was split into two infusions in order to maintain the blind. For subjects with moderate renal impairment (30 ml/min<CrCl≤50 ml/min), as estimated by the Cockroft-Gault formula, unblinded pharmacy staff or unblinded study staff could adjust the dose of ceftaroline fosamil to two consecutive 200 mg infusions and readjust dose to two 300 mg infusions when renal function improved (CrCl>50 mL/min). The duration of treatment was between 5 to 7 days.
(§6) All subjects who received any amount of study drug were included in the safety analysis. Safety measures included monitoring for adverse events (AE) up to TOC and serious adverse events (SAE) through LFU; recording vital signs, physical examination, electrocardiogram (ECG), and clinical laboratory findings (clinical chemistry, hematology, and urinalysis), at prespecified times throughout the study.

clinical = conditions: human, in vivo
[5] = Example 4 CAP study, safety
Method: as §5, §6

CCO/N=C(\C(=O)N[C@@H]1C(=O)N2C(C(=O)[O-])=C(Sc3nc(-c4cc[n+](C)cc4)cs3)CS[C@H]12)c1nsc(N)n1 [Ceftaroline, ceftaroline]
binding to human plasma protein (human plasma protein): approximately 20%
Difference (ceftaroline minus ceftriaxone), Clinical Cure Rate at EOT ([1]; Example 4, CE): 6.0%
Difference (ceftaroline minus ceftriaxone), Clinical Success at TOC ([1]; Example 4, CE): 4.9%
Clinical Success at the TOC Visit ([1]; Example 4, CE population): 193 (82.1) %
Per-subject Clinical Cure Rate at the EOT Visit ([1]; Example 4, CE population): 202 (86.0) %
Difference (ceftaroline minus ceftriaxone), Favorable Microbiological Outcome at TOC ([1]; Example 4, ME): 1.8%
Favorable Microbiological Outcome at the TOC Visit ([1]; Example 4, ME population): 72 (84.7) %
Difference (ceftaroline minus ceftriaxone), Clinical Cure Rate at EOT ([1]; Example 4, MITTE): 7.4%
Difference (ceftaroline minus ceftriaxone), Clinical Success at TOC ([1]; Example 4, MITTE): 5.9%
Clinical Success at the TOC Visit ([1]; Example 4, MITTE population): 235 (81.3) %
Per-subject Clinical Cure Rate at the EOT Visit ([1]; Example 4, MITTE population): 249 (86.2) %
Difference (ceftaroline minus ceftriaxone), Favorable Microbiological Outcome at TOC ([1]; Example 4, mMITTE): 0.4%
Favorable Microbiological Outcome at the TOC Visit ([1]; Example 4, mMITTE population): 74 (82.2) %
Difference (ceftaroline minus ceftriaxone), Clinical Cure Rate at EOT ([2]; Example 5, CE): 7.6%
Difference (ceftaroline minus ceftriaxone), Clinical Success at TOC ([2]; Example 5, CE): 8.4%
Clinical Success at the TOC Visit ([2]; Example 5, CE population): 194 (86.6) %
Per-subject Clinical Cure Rate at the EOT Visit ([2]; Example 5, CE population): 197 (87.9) %
Difference (ceftaroline minus ceftriaxone), Favorable Microbiological Outcome at TOC ([2]; Example 5, ME): 11.0%
Favorable Microbiological Outcome at the TOC Visit ([2]; Example 5, ME population): 62 (89.9) %
Difference (ceftaroline minus ceftriaxone), Clinical Cure Rate at EOT ([2]; Example 5, MITTE): 6.3%
Difference (ceftaroline minus ceftriaxone), Clinical Success at TOC ([2]; Example 5, MITTE): 6.2%
Clinical Success at the TOC Visit ([2]; Example 5, MITTE population): 244 (83.8) %
Per-subject Clinical Cure Rate at the EOT Visit ([2]; Example 5, MITTE population): 253 (86.9) %
Difference (ceftaroline minus ceftriaxone), Favorable Microbiological Outcome at TOC ([2]; Example 5, mMITTE): 9.3%
Favorable Microbiological Outcome at the TOC Visit ([2]; Example 5, mMITTE population): 66 (88.0) %
Favorable Microbiological Outcome at TOC by Baseline Pathogen (E. coli; Example 5, ME): 8/8 (100.0)
Clinical Cure Rate at the TOC Visit by Baseline Pathogen (E. coli; Example 5, ME Population): 8/8 (100.0)
Favorable Microbiological Outcome at TOC by Baseline Pathogen (H. influenzae; Example 5, ME): 2/3 (66.7)
Clinical Cure Rate at the TOC Visit by Baseline Pathogen (H. influenzae; Example 5, ME Population): 2/3 (66.7)
Favorable Microbiological Outcome at TOC by Baseline Pathogen (H. parainfluenzae; Example 5, ME): 7/7 (100.0)
Clinical Cure Rate at the TOC Visit by Baseline Pathogen (H. parainfluenzae; Example 5, ME Population): 7/7 (100.0)
Favorable Microbiological Outcome at TOC by Baseline Pathogen (S. aureus; Example 5, ME): 8/10 (80.0)
Clinical Cure Rate at the TOC Visit by Baseline Pathogen (S. aureus; Example 5, ME Population): 8/10 (80.0)
Favorable Microbiological Outcome at TOC by Baseline Pathogen (S. pneumoniae; Example 5, ME): 21/24 (87.5)
Clinical Cure Rate at the TOC Visit by Baseline Pathogen (S. pneumoniae; Example 5, ME Population): 21/24 (87.5)
metabolic turnover [3]: < 12%
Adverse event: COPD [4]: 8 (2.5) %
Adverse event: Diarrhea [4]: 12 (3.8) %
Adverse event: Head ache [4]: 11 (3.5) %
Adverse event: Pleural effusion [4]: 4 (1.3) %
Adverse event: Pneumonia [4]: 8 (2.5) %
study-drug-related TEAE: alanine aminotransferase increased [4]: 0.3%
study-drug-related TEAE: blood creatinine phosphokinase increased [4]: 1.3%
study-drug-related TEAE: heartache [4]: 0.6%
subjects with any study-drug-related TEAEs [4]: 12.4%
clearance (clinical; CL/Fm): 160 mL/min
half-life (clinical; mean plasma terminal elimination half-life): ~2.5 h
half-life (clinical; t1/2): 1.6 h
hemolytic anemia [5]: No evidence of hemolytic anemia
incidence of deaths [5]: 2.9%
